# Laboratory results taken from PubChem BioAssay AID2060912 (Molecular Pharmacology Branch, DTP, NCI, 2025).
# Tested on: HUVEC/MSC spheroids viability
# Experiment: Human HUVEC/MSC cell line growth inhibition [KRAS2];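 on viability, T/C: percent of DMSO vehicle control luminescence so 100% = untreated viability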
# Conditions: for IC50: curve of first compound; for viability, T/C: stronger effect = lower value
# In short: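 HUVEC + hMSC stromal spheroids only, no malignant cells; 37 °C, 5% CO2. Drugs singly and in pairs, half-log series down from clinical Cmax (max 10 microM if Cmax undetermined).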
# [1] = second compound 0.00949 µM, first compound 0.0316 µM
# [2] = second compound 0.00949 µM, first compound 0.1 µM
# [3] = second compound 0.00949 µM, first compound 0.316 µM
# [4] = second compound 0.00949 µM, first compound 1 µM
# [5] = second compound 0.00949 µM, first compound 3.16 µM
# [6] = second compound 0.00949 µM, first compound 10 µM
# [7] = second compound 0.03 µM, first compound 0.0316 µM
# [8] = second compound 0.03 µM, first compound 0.1 µM
# [9] = second compound 0.03 µM, first compound 0.316 µM
# [10] = second compound 0.03 µM, first compound 1 µM
# [11] = second compound 0.03 µM, first compound 3.16 µM
# [12] = second compound 0.03 µM, first compound 10 µM
# [13] = second compound 0.0949 µM, first compound 0.0316 µM
# [14] = second compound 0.0949 µM, first compound 0.1 µM
# [15] = second compound 0.0949 µM, first compound 0.316 µM
# [16] = second compound 0.0949 µM, first compound 1 µM
# [17] = second compound 0.0949 µM, first compound 3.16 µM
# [18] = second compound 0.0949 µM, first compound 10 µM
# [19] = second compound 0.3 µM, first compound 0.0316 µM
# [20] = second compound 0.3 µM, first compound 0.1 µM
# [21] = second compound 0.3 µM, first compound 0.316 µM
# [22] = second compound 0.3 µM, first compound 1 µM
# [23] = second compound 0.3 µM, first compound 3.16 µM
# [24] = second compound 0.3 µM, first compound 10 µM
# [25] = second compound 0.949 µM, first compound 0.0316 µM
# [26] = second compound 0.949 µM, first compound 0.1 µM
# [27] = second compound 0.949 µM, first compound 0.316 µM
# [28] = second compound 0.949 µM, first compound 1 µM
# [29] = second compound 0.949 µM, first compound 3.16 µM
# [30] = second compound 0.949 µM, first compound 10 µM
# [31] = second compound 3 µM, first compound 0.0316 µM
# [32] = second compound 3 µM, first compound 0.1 µM
# [33] = second compound 3 µM, first compound 0.316 µM
# [34] = second compound 3 µM, first compound 1 µM
# [35] = second compound 3 µM, first compound 3.16 µM
# [36] = second compound 3 µM, first compound 10 µM
smiles,measurement,setting,value
COC(=O)c1ccc2c(C(=Nc3ccc(N(C)C(=O)CN4CCN(C)CC4)cc3)c3ccccc3)c(O)[nH]c2c1 + C=CC(=O)N1CCN(c2nc(OCC3CCCN3C)nc3c2CCN(c2cccc4cccc(C)c24)C3)CC1CC#N,IC50,second compound 0.00949 µM,2180 nM
same,IC50,second compound 0.03 µM,2220 nM
same,IC50,second compound 0.0949 µM,2910 nM
same,IC50,second compound 0.3 µM,2810 nM
same,IC50,second compound 0.949 µM,1640 nM
same,IC50,second compound 3 µM,894 nM
same,"viability, T/C",[1],91.3%
same,"viability, T/C",[2],82.5%
same,"viability, T/C",[3],89.5%
same,"viability, T/C",[4],57.8%
same,"viability, T/C",[5],45.7%
same,"viability, T/C",[6],0.43%
same,"viability, T/C",[7],81.1%
same,"viability, T/C",[8],102%
same,"viability, T/C",[9],76.4%
same,"viability, T/C",[10],52.6%
same,"viability, T/C",[11],52.6%
same,"viability, T/C",[12],0.35%
same,"viability, T/C",[13],76%
same,"viability, T/C",[14],78.3%
same,"viability, T/C",[15],93.3%
same,"viability, T/C",[16],68.1%
same,"viability, T/C",[17],49.2%
same,"viability, T/C",[18],0.37%
same,"viability, T/C",[19],60.5%
same,"viability, T/C",[20],78.7%
same,"viability, T/C",[21],78.3%
same,"viability, T/C",[22],70.3%
same,"viability, T/C",[23],47.7%
same,"viability, T/C",[24],0.35%
same,"viability, T/C",[25],57.5%
same,"viability, T/C",[26],73.2%
same,"viability, T/C",[27],91.1%
same,"viability, T/C",[28],55.5%
same,"viability, T/C",[29],34.6%
same,"viability, T/C",[30],0.31%
same,"viability, T/C",[31],65.2%
same,"viability, T/C",[32],96.5%
same,"viability, T/C",[33],84.3%
same,"viability, T/C",[34],46.6%
same,"viability, T/C",[35],0.43%
same,"viability, T/C",[36],0.33%
O=C(c1cc(Cc2n[nH]c(=O)c3ccccc23)ccc1F)N1CCN(C(=O)C2CC2)CC1 + C=CC(=O)N1CCN(c2nc(OCC3CCCN3C)nc3c2CCN(c2cccc4cccc(C)c24)C3)CC1CC#N,IC50,second compound 0.00949 µM,> 10000 nM
same,IC50,second compound 0.03 µM,> 10000 nM
same,IC50,second compound 0.0949 µM,> 10000 nM
same,IC50,second compound 0.3 µM,> 10000 nM
same,IC50,second compound 0.949 µM,> 10000 nM
same,IC50,second compound 3 µM,> 10000 nM
same,"viability, T/C",[1],80.8%
same,"viability, T/C",[2],101%
same,"viability, T/C",[3],89.4%
same,"viability, T/C",[4],82.3%
same,"viability, T/C",[5],80.9%
same,"viability, T/C",[6],112%
same,"viability, T/C",[7],78.2%
same,"viability, T/C",[8],96.2%
same,"viability, T/C",[9],98.7%
same,"viability, T/C",[10],81.2%
same,"viability, T/C",[11],103%
same,"viability, T/C",[12],83.7%
same,"viability, T/C",[13],91.8%
same,"viability, T/C",[14],87.8%
same,"viability, T/C",[15],77.2%
same,"viability, T/C",[16],101%
same,"viability, T/C",[17],88.4%
same,"viability, T/C",[18],100%
same,"viability, T/C",[19],71%
same,"viability, T/C",[20],91.9%
same,"viability, T/C",[21],86.1%
same,"viability, T/C",[22],73.7%
same,"viability, T/C",[23],82.8%
same,"viability, T/C",[24],81.8%
same,"viability, T/C",[25],68.4%
same,"viability, T/C",[26],84.9%
same,"viability, T/C",[27],84.1%
same,"viability, T/C",[28],88.8%
same,"viability, T/C",[29],89.8%
same,"viability, T/C",[30],85.2%
same,"viability, T/C",[31],91.5%
same,"viability, T/C",[32],79.5%
same,"viability, T/C",[33],111%
same,"viability, T/C",[34],102%
same,"viability, T/C",[35],107%
same,"viability, T/C",[36],89.7%
